In patent publication US9833497B2, “Human originated EGF domain proteins and use of the same” (CHENGDU SOURCEBIO LIMITED-LIABILITY COMPANY, priority 2013, dated 2017):

Experiments:
Type in all cases: cell-based
Serratia marcescens = experiment: MIC against Gram-negative bacteria: Serratia marcescens; conditions: S. marcescens; 10 h cultivation at 37° C.; 5×10^5 CFU/mL
Outline: (§1)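 Two-fold serial dilutions of each purified human EGF domain protein, three replicate wells per level, were combined with bacteria at a final 5×10^5 CFU/mL in LB. Cultures were shaken at 175 rpm, 37° C. The MIC was taken as the minimum concentration preventing growth.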

Aeromonas hydrophila = experiment: MIC against Gram-negative bacteria: Aeromonas hydrophila; conditions: A. hydrophila; 10 h cultivation at 37° C.; 5×10^5 CFU/mL
Outline: as §1

Klebsiella pneumonia = experiment: MIC against Gram-negative bacteria: Klebsiella pneumonia; conditions: K. pneumonia; 10 h cultivation at 37° C.; 5×10^5 CFU/mL
Outline: as §1

Pseudomonas aeruginosa = experiment: MIC against Gram-negative bacteria: Pseudomonas aeruginosa; conditions: P. aeruginosa; 10 h cultivation at 37° C.; 5×10^5 CFU/mL
Outline: as §1

Enterobacter cloacae = experiment: MIC against Gram-negative bacteria: Enterobacter cloacae; conditions: E. cloacae; 10 h cultivation at 37° C.; 5×10^5 CFU/mL
Outline: as §1

E. coli DH5α = experiment: Antibacterial activity: MIC and growth curve against E. coli DH5α in 96-well plate; conditions: minimal inhibitory concentration against E. coli DH5α; 96-well plate, 5×10^5 CFU/mL, 37° C., judged after 8 h
Outline: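 Log-phase bacteria (OD600 ~0.5) resuspended in LB at 5×10^5 CFU/mL, exposed to recombinant protein at 50, 25, 12.5 μg/mL final in triplicate, 37 °C shaking at 175 rpm. OD600 read every 30 min; MIC is lowest concentration showing no growth.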

Proteus vulgaris = experiment: MIC against Gram-negative bacteria: Proteus vulgaris; conditions: P. vulgaris; 10 h cultivation at 37° C.; 5×10^5 CFU/mL
Outline: as §1

Moraxella catarrhalis = experiment: MIC against Gram-negative bacteria: Moraxella catarrhalis; conditions: M. catarrhalis; 10 h cultivation at 37° C.; 5×10^5 CFU/mL
Outline: as §1

Proteus mirabilis = experiment: MIC against Gram-negative bacteria: Proteus mirabilis; conditions: P. mirabilis; 10 h cultivation at 37° C.; 5×10^5 CFU/mL
Outline: as §1

Citrobacter diversus = experiment: MIC against Gram-negative bacteria: Citrobacter diversus; conditions: C. diversus; 10 h cultivation at 37° C.; 5×10^5 CFU/mL
Outline: as §1

E. coli BL21 = experiment: MIC against Gram-negative bacteria: E. coli BL21; conditions: E. coli BL21; 10 h cultivation at 37° C.; 5×10^5 CFU/mL
Outline: as §1

Substance | MIC (μg/mL) S. marcescens (Serratia marcescens) [µg/mL] | MIC (μg/mL) A. hydrophila (Aeromonas hydrophila) [µg/mL] | MIC (μg/mL) K. pneumonia (Klebsiella pneumonia) [µg/mL] | MIC (μg/mL) P. aeruginosa (Pseudomonas aeruginosa) [µg/mL] | MIC (μg/mL) E. cloacae (Enterobacter cloacae) [µg/mL] | MIC (E. coli DH5α) [µg/mL] | MIC (μg/mL) P. vulgaris (Proteus vulgaris) [µg/mL] | MIC (μg/mL) M. catarrhalis (Moraxella catarrhalis) [µg/mL] | MIC (μg/mL) P. mirabilis (Proteus mirabilis) [µg/mL] | MIC (μg/mL) C. diversus (Citrobacter diversus) [µg/mL] | MIC (μg/mL) E. coli BL21 (E. coli BL21) [µg/mL]
PRT237 (DINECTPPYSVYCGFNAVCYNVEGSFYCQCVPGYRLHSGNEQFSNSNENTCQ; listed as Homo sapiens) | 50 | 12.5 | 12.5 | 25 | 25 | 25 | 25 | 12.5 | 25 | 25 | 12.5
PRT238 (DICDPNPCENGGICLPGLADGSFSCECPDGFTDPNCS; listed as Homo sapiens) | 12.5 | 12.5 | 50 | 25 | 25 | 25 | 25 | 12.5 | 12.5 | 25 | 12.5
PRT239 (SAGPCTPNPCHNGGTCEISEAYRGDTFIGYVCKCPRGFNGIHCQ; listed as Homo sapiens) | 12.5 | 12.5 | 12.5 | 12.5 | 12.5 | 25 | 12.5 | 25 | 12.5 | 100 | 12.5
PRT240 (NINECEVEPCKNGGICTDLVANYSCECPGEFMGRNCQ; listed as Homo sapiens) | 12.5 | 12.5 | 12.5 | 25 | 25 | 25 | 100 | 12.5 | 100 | 25 | 12.5
PRT241 (DTDECQIAGVCQQMCVNYVGGFECYCSEGHELEADGISCS; listed as Homo sapiens) | 50 | 12.5 | 12.5 | 12.5 | 12.5 | 12.5 | 25 | 25 | 12.5 | 12.5 | 12.5
PRT242 (CEPGCKFGECVGPNKCRCFPGYTGKTC; listed as Homo sapiens) | 12.5 | 12.5 | 50 | 50 | 12.5 | 12.5 | 12.5 | 12.5 | 12.5 | 12.5 | 12.5
PRT243 (DVNECGMKPRPCQHRCVNTHGSYKCFCLSGHMLMPDATCV; listed as Homo sapiens) | 12.5 | 25 | 12.5 | 12.5 | 12.5 | 12.5 | 25 | 25 | 12.5 | 12.5 | 12.5
PRT244 (TCAMINCQYSCEDTEEGPQCLCPSSGLRLAPNGRDCL; listed as Homo sapiens) | 12.5 | 25 | 12.5 | 12.5 | 12.5 | 50 | 25 | 25 | 12.5 | 12.5 | 12.5
PRT245 (DIDECASGKVICPYNRRCVNTFGSYYCKCHIGFELQYIS; listed as Homo sapiens) | 25 | 12.5 | 12.5 | 12.5 | 12.5 | 12.5 | 12.5 | 12.5 | 25 | 25 | 50
PRT246 (DINECTMDSHTCSHHANCFNTQGSFKCKCKQGYKGNGLRCS; listed as Homo sapiens) | 12.5 | 12.5 | 12.5 | 12.5 | 12.5 | 12.5 | 25 | 25 | 12.5 | 12.5 | 12.5
PRT247 (GAAICQPPCRNGGSCVQPGRCRCPAGWRGDTCQ; listed as Homo sapiens) | 25 | 12.5 | 12.5 | 12.5 | 25 | 12.5 | 12.5 | 100 | 25 | 25 | 12.5
PRT248 (DVDECSARRGGCPQRCVNTAGSYWCQCWEGHSLSADGTLCV; listed as Homo sapiens) | 12.5 | 25 | 25 | 12.5 | 12.5 | 12.5 | 25 | 25 | 12.5 | 12.5 | 25
PRT249 (EAICAKPCLNGGVCVRPDQCECAPGWGGKHCH; listed as Homo sapiens) | 12.5 | 12.5 | 12.5 | 12.5 | 25 | 25 | 12.5 | 12.5 | 12.5 | 25 | 12.5
PRT250 (DVDECRTSITLCSHHCFNTAGSFTCGCPHDLVLGVDGRTCM; listed as Homo sapiens) | 12.5 | 25 | 12.5 | 12.5 | 12.5 | 12.5 | 25 | 25 | 12.5 | 12.5 | 12.5
PRT251 (FSHLCLEDHNSYCINGACAFHHELEKAICRCFTGYTGERCE; listed as Homo sapiens) | 12.5 | 12.5 | 12.5 | 25 | 25 | 25 | 12.5 | 12.5 | 12.5 | 25 | 12.5
